The supplement of paper PMC10883282
Structures can show the parent of a compound that is named as a salt. ± gives the standard deviation of the averaged measurements.

Test system: MES-SA
Test: relative viability vs DMSO control (72 h) (fraction); higher = more viable cells
How it was run: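 Densities for seeding sarcoma cell lines into 384-well plates were set to give 80–90% confluence. After 24 h, 2.5 µl of serially diluted compound from source plates of 10 mM to 0.0002 mM went in, and plates stayed 72 h at 37 °C in 5% CO2 with 0.1% DMSO vehicle and a 5 µM positive control. Percent growth from ATPLite readings, averaged over up to triplicate wells, served as relative viability, rescaled so 1 means full and 0 means none.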

| SMILES | relative viability (0.00017 µM) | relative viability (0.00051 µM) | relative viability (0.00152 µM) | relative viability (0.00457 µM) | relative viability (0.01372 µM) | relative viability (0.04115 µM) | relative viability (0.1235 µM) | relative viability (0.3704 µM) | relative viability (1.111 µM) | relative viability (3.333 µM) | relative viability (10 µM) |
| --- | --- | --- | --- | --- | --- | --- | --- | --- | --- | --- | --- |
| C[C@@H]1COCCN1c1cc(-c2ccnn2C)c2ccnc(-c3ccn[nH]3)c2n1 | 0.952 ± 0.028 | 0.934 ± 0.025 | 0.9269 ± 0.0056 | 0.924 ± 0.028 | 0.878 ± 0.013 | 0.752 ± 0.019 | 0.489 ± 0.012 | 0.31 ± 0.022 | 0.175 ± 0.0043 | 0.122 ± 0.0046 | 0.113 ± 0.003 |
| CCN1CCN(Cc2ccc(Nc3ncc(F)c(-c4cc(F)c5nc(C)n(C(C)C)c5c4)n3)nc2)CC1 [Abemaciclib] | 0.883 ± 0.026 | 0.901 ± 0.035 | 0.878 ± 0.02 | 0.873 ± 0.031 | 0.876 ± 0.05 | 0.84 ± 0.046 | 0.736 ± 0.037 | 0.61 ± 0.031 | 0.435 ± 0.012 | 0.361 ± 0.0072 | 0.348 ± 0.023 |
| CCc1cc2c(cc1N1CCC(N3CCOCC3)CC1)C(C)(C)c1[nH]c3cc(C#N)ccc3c1C2=O [Alectinib] | 0.896 ± 0.018 | 0.91 ± 0.026 | 0.895 ± 0.045 | 0.893 ± 0.036 | 0.889 ± 0.068 | 0.944 ± 0.035 | 0.953 ± 0.035 | 0.9459 ± 0.0094 | 0.942 ± 0.018 | 0.968 ± 0.049 | 0.959 ± 0.035 |
| Cc1nc(NC(=O)N2CCC[C@H]2C(N)=O)sc1-c1ccnc(C(C)(C)C(F)(F)F)c1 [Alpelisib] | 0.884 ± 0.046 | 0.909 ± 0.053 | 0.901 ± 0.01 | 0.88 ± 0.052 | 0.879 ± 0.033 | 0.843 ± 0.034 | 0.774 ± 0.014 | 0.64 ± 0.016 | 0.526 ± 0.019 | 0.43 ± 0.015 | 0.323 ± 0.0056 |
| Cn1cc(-c2cc3c(N4CCN(c5ncc([C@@](C)(N)c6ccc(F)cc6)cn5)CC4)ncnn3c2)cn1 [Avapritinib] | 0.882 ± 0.024 | 0.867 ± 0.036 | 0.8778 ± 0.0081 | 0.884 ± 0.016 | 0.91 ± 0.016 | 0.902 ± 0.038 | 0.898 ± 0.02 | 0.884 ± 0.018 | 0.795 ± 0.014 | 0.624 ± 0.02 | 0.51 ± 0.011 |
| CC(C)NC(=O)C1CCC(n2c(NC(=O)c3ccc(F)cc3)nc3ccc(CN4CCC(C(C)(C)O)CC4)cc32)CC1 (centres undefined) [Belizatinib] | 0.942 ± 0.023 | 0.92 ± 0.026 | 0.934 ± 0.012 | 0.957 ± 0.023 | 0.932 ± 0.018 | 0.9451 ± 0.0052 | 0.9316 ± 0.0039 | 0.934 ± 0.037 | 0.824 ± 0.022 | 0.523 ± 0.024 | 0.148 ± 0.016 |
| Cn1cnc2c(F)c(Nc3ccc(Br)cc3F)c(C(=O)NOCCO)cc21 [Binimetinib] | 0.927 ± 0.027 | 0.9232 ± 0.0083 | 0.927 ± 0.017 | 0.894 ± 0.042 | 0.892 ± 0.024 | 0.84 ± 0.025 | 0.793 ± 0.02 | 0.7569 ± 0.0022 | 0.782 ± 0.025 | 0.741 ± 0.037 | 0.735 ± 0.059 |
| Nc1cc(C(F)(F)F)c(-c2cc(N3CCOCC3)nc(N3CCOCC3)n2)cn1 [Buparlisib] | 0.897 ± 0.012 | 0.902 ± 0.0092 | 0.895 ± 0.011 | 0.932 ± 0.022 | 0.907 ± 0.023 | 0.872 ± 0.022 | 0.811 ± 0.022 | 0.677 ± 0.025 | 0.208 ± 0.01 | 0.0825 ± 0.0014 | 0.037 ± 0.0019 |
| CNC(=O)c1ccc(-c2cnc3ncc(Cc4ccc5ncccc5c4)n3n2)cc1F [Capmatinib] | 0.93 ± 0.025 | 0.959 ± 0.037 | 0.958 ± 0.028 | 0.953 ± 0.057 | 0.943 ± 0.012 | 0.945 ± 0.036 | 0.982 ± 0.012 | 0.934 ± 0.012 | 0.937 ± 0.055 | 0.867 ± 0.035 | 0.837 ± 0.025 |
| COc1cc2c(Oc3ccc4[nH]c(C)cc4c3F)ncnc2cc1OCCCN1CCCC1 [Cediranib] | 0.944 ± 0.036 | 0.934 ± 0.065 | 0.949 ± 0.041 | 0.929 ± 0.037 | 0.967 ± 0.012 | 0.95 ± 0.02 | 0.9503 ± 0.0085 | 0.966 ± 0.029 | 0.774 ± 0.037 | 0.619 ± 0.02 | 0.257 ± 0.023 |
| COc1c(OCCCN2CCOCC2)ccc2c1N=C(NC(=O)c1cnc(N)nc1)N1CCN=C21 [Copanlisib] | 0.966 ± 0.029 | 0.926 ± 0.031 | 0.9 ± 0.019 | 0.633 ± 0.029 | 0.502 ± 0.016 | 0.374 ± 0.0084 | 0.273 ± 0.0095 | 0.164 ± 0.0066 | 0.147 ± 0.0029 | 0.18 ± 0.0026 | 0.159 ± 0.0078 |
| CN1CCN(c2ccc3nc(-c4c(N)c5c(F)cccc5[nH]c4=O)[nH]c3c2)CC1 [Dovitinib] | 0.945 ± 0.032 | 0.974 ± 0.029 | 0.95 ± 0.021 | 0.95 ± 0.017 | 0.9483 ± 0.0052 | 0.9283 ± 0.009 | 0.921 ± 0.04 | 0.836 ± 0.041 | 0.4858 ± 0.0047 | 0.191 ± 0.012 | 0.0897 ± 0.0022 |
| COc1cccc2c1C(=O)c1c(O)c3c(c(O)c1C2=O)C[C@@](O)(C(=O)CO)C[C@@H]3O[C@H]1C[C@H](N)[C@H](O)[C@H](C)O1 [Doxorubicin Hydrochloride] | 0.975 ± 0.028 | 0.937 ± 0.042 | 0.934 ± 0.024 | 0.89 ± 0.024 | 0.66 ± 0.036 | 0.39 ± 0.0073 | 0.313 ± 0.01 | 0.201 ± 0.0045 | 0.0143 ± 0.0029 | 0.0402 ± 0.002 | 0.03487 ± 0.00029 |
| Cc1cnc(Nc2ccc(OCCN3CCCC3)cc2)nc1Nc1cccc(S(=O)(=O)NC(C)(C)C)c1 [Fedratinib] | 0.966 ± 0.046 | 0.959 ± 0.035 | 0.953 ± 0.026 | 0.937 ± 0.029 | 0.949 ± 0.025 | 0.907 ± 0.018 | 0.861 ± 0.018 | 0.679 ± 0.03 | 0.2659 ± 0.0019 | 0.18 ± 0.0027 | 0.028 ± 0.0026 |
